Laboratory results published in patent publication US7897637B2, “Methods of using flavonoids to enhance memory” (The Salk Institute for Biological Studies, priority 2006, dated 2011).
Where two headings read alike, the source gives them in different places.

Assays:
[1] = Trolox Equivalent Activity Concentration (ABTS decolorization assay); settings: Trolox as reference
Procedure: To determine if the protection seen with the different fisetin derivatives correlated with their antioxidant properties, their Trolox Equivalent Activity Concentration (TEAC) values were determined. In this procedure, a compound is compared to Trolox, a water-soluble vitamin E analog, for its ability to reduce the radical cation of ABTS in aqueous solution. As reported previously, fisetin has a TEAC value of ˜3 (Table II). None of the derivatives had TEAC values in this range despite, in some cases, showing better protection against oxidative stress-induced death. Thus, there was no correlation with antioxidant activity as defined by TEAC value and protection in this system.
TEAC values for the flavonoids were determined according to (Re et al. Free Rad. Biol. Med., 26:1231-7, 1999) but modified for a plate reader. Briefly, 250 μl of 2,2′-azinobis(3-ethylbenzothiazoline 6-sulfonate)(ABTS) treated overnight with potassium persulfate and diluted to an OD of ˜0.7 at 734 nm was added to 2.5 μl of a flavonoid solution in ethanol. The change in absorbance due to the reduction of the ABTS radical cation was measured at 734 nm for 4 minutes. To calculate the TEAC, the gradient of the plot of the percentage inhibition of absorbance vs. concentration for the flavonoid in question is divided by the gradient of the plot for Trolox.

[2] = test system: PC12 cells; test: PC12 cell differentiation assay (neurite outgrowth); format: cell-based; settings: for EC50 / Emax: Rattus norvegicus, PC-12, PC12 cells in N2 medium, 24 hours, neurites scored; for EC50: read-out: EC50 (μM), induction of PC12 cell differentiation; for Emax: read-out: Maximal Efficacy, induction of PC12 cell differentiation
Procedure: Four trihydroxyflavones (THF) and three dihydroxyflavones (DHF) which lack one or two, respectively, of the hydroxyl groups found in fisetin were tested for their ability to induce the differentiation of PC12 cells. Differentiation was assessed by scoring neurite outgrowth (Sagara et al., J. Neurochem., 90:1144-1155, 2004). […]
PC12 cells in N2 medium were treated with flavonoids for 24 hours at which time the cells were scored for the presence of neurites. PC12 cells produce neurites much more rapidly when treated in N2 medium than when treated in regular growth medium (Kimura et al., J. Cell Biol., 116:777-83, 1992). For each treatment, 100 cells in each of three separate fields were counted. Cells were scored positive if one or more neurites>1 cell body diameter in length were observed.

[3] = test system: HT22 cells; test: Protection of HT22 cells from oxidative glutamate toxicity (MTT assay); format: cell-based, mouse; settings: for EC50 / Emax: Mus musculus, 5 mM glutamate, MTT assay; for EC50: HT-22, 24 h, read-out: EC50 (μM), protection from oxidative-stress induced death; for EC50 / Emax / effect of higher levels of BSO on protection: 24 hours; for Emax: HT-22, read-out: Maximal Efficacy, protection from oxidative-stress induced death; for effect of higher levels of BSO on protection: 5 mM glutamate + 1 mM BSO, MTT
From the text: Fisetin is effective at protecting nerve cells from oxidative stress-induced death (Ishige et al., Free Radic. Biol. Med., 30:433-446, 2001). This Example illustrates the structure-activity relationship between fisetin derivatives and neuroprotection in a model of oxidative glutamate toxicity using mouse HT22 cells. This pathway of programmed cell death is initiated by the addition of glutamate to the extracellular medium. Glutamate inhibits the uptake of cystine which is required for glutathione (GSH) biosynthesis, resulting in the depletion of GSH in neurons (for review see Tan et al., Curr. Top. Med. Chem., 1:497-506, 2001). Subsequently, this decrease in cellular GSH results in the production of reactive oxygen species (ROS) by mitochondria. The ROS accumulation then causes Ca^+2 influx from the extracellular medium which leads to cell death.
HT22 cells were untreated (Ct) or treated with 10 μM fisetin, 25 μM 3,3′-DHF, 25 μM 3,4′-DHF, 2.5 μM 3′,4′-DHF, 2.5 μM 3,3′,4′-THF 25 μM 3,7,3′-THF, 25 μM 3,7,4′-THF or 10 μM 7,3′,4′-THF in the presence of 5 mM glutamate±50 μM PD98059. Twenty four (24) hours later cell survival was measured by the MTT assay.
HT22 cells were untreated (Ct) or treated with 10 μM fisetin, 25 μM 3,3′-DHF. […] Protection by all of the other flavonoids was unaffected by BSO.
Cell viability was determined by a modified version of the 3-(4,5-dimethylthiazol-2-yl)-2,5-diphenyl tetrazolium bromide (MTT) assay based on the standard procedure (Hansen et al., J. Immunol. Meth., 119:203-10, 1989). Briefly, cells were seeded onto 96-well microtiter plates at a density of 5×10^3 cells per well. The next day, the medium was replaced with DMEM supplemented with 7.5% DFCS and the cells were treated with the different flavonoids alone or in the presence of 5 mM glutamate. Twenty four hours later, the medium in each well was aspirated and replaced with fresh medium containing 2.5 μg/ml MTT. After 4 hours of incubation at 37° C., cells were solubilized with 100 μl of a solution containing 50% dimethylformamide and 20% SDS (pH 4.7). The absorbance at 570 nm was measured on the following day with a microplate reader (Molecular Devices). Results obtained from the MTT assay correlated directly with the extent of cell death as confirmed visually. Controls employing wells without cells were used to determine the effects of the agents upon the assay chemistry.

[4] = test system: PC12 cells; settings: cited from earlier work; for EC50: PC12 cells, read-out: EC50 for differentiation; for EC50 / differentiation of the cells induced at best: Sagara et al. 2004
[5] = test system: CREB; test: CREB phosphorylation in hippocampal slices (immunoblotting, densitometry); format: cell-based, rat; settings: inhibitor alone (50 μM PD98059 or 10 μM U0126, 30 minutes)
Procedure: (§1) Western blots panels A and B) of hippocampal slices treated with (A) 1 μM fisetin or (B) pretreated for 30 minutes with either 50 μM PD98059 (PD) or 10 μM U0126 (U) before the addition of 1 μM fisetin for 5 minutes, which blots were probed with the indicated antibodies.
(§2) Hippocampal slices in artificial cerebral spinal fluid (ACSF) were treated with either 1 μM fisetin for 5-20 minutes or pretreated for 30 minutes with either 50 μM PD98059 (PD) or 10 μM U0126 (J) before the addition of 1 μM fisetin for 5 minutes. Equal amounts of protein were analyzed by SDS-PAGE and immunoblotting with antibodies to phospho-ERK and phospho-CRFB along with antibodies to the unphosphorylated forms of the proteins. The average phosphoprotein signal from the blots was quantified by densitometry and normalized to total protein was plotted±S.D.

[6] = test system: ERK1 (p44); test: ERK1 (p44) phosphorylation in hippocampal slices (immunoblotting, densitometry); format: cell-based, rat; settings: inhibitor alone (50 μM PD98059 or 10 μM U0126, 30 minutes)
Procedure: as §1, §2

[7] = test system: ERK2 (p42); test: ERK2 (p42) phosphorylation in hippocampal slices (immunoblotting, densitometry); format: cell-based, rat; settings: inhibitor alone (50 μM PD98059 or 10 μM U0126, 30 minutes)
Procedure: as §1, §2

[8] = test system: Nrf2 and HO-1; test: Nrf2 and HO-1 induction in HT22 cells (immunoblotting); format: cell-based, mouse; settings: for increasing the levels of Nrf2 and inducing HO-1 synthesis: HT22 cells, 10-25 μM, 4 hours (Nrf2), 24 hours (HO-1)
Procedure: Since the ability to activate the ARE could be important for some of the beneficial effects of flavonoids such as fisetin, it was determined which, if any, of the fisetin derivatives could activate the ARE and induce the synthesis of downstream proteins such as HO-1. HT22 cells were untreated (control) or treated with 10 μM fisetin, 25 μM 3,3′DHF, 25 μM 3,4′-DHF, 10 μM 3′,4′-DHF, 10 μM 3,3′,4′-THF, 25 μM 3,7,3′-THF, 25 μM 3,7,4′-THF or 10 μM 7,3′,4′-THF for 4 hours. Nuclei were prepared and equal amounts of protein were analyzed by SDS-PAGE and immunoblotting with anti-Nrf-2 antibodies.
ERK activation is implicated in the induction of Nrf2 by certain stimuli in some cell types. To determine if ERK activation plays a role in the induction of Nrf2 and HO-1 by fisetin and its derivatives, cells were pretreated with PD98059 prior to the addition of the flavonoids to the cells. HT22 cells then were untreated (control) or treated for 24 hours with 10 μM fisetin, 25 μM 3,3′-DHF, 25 μM 3,4′-DHF, 10 μM 3′,4′-DHF, 10 μM 3,3′,4′-THF, 25 μM 3,7,3′-THF, 25 μM 3,7,4′-THF or 10 μM 7,3′,4′-THF. Cell lysates were prepared and equal amounts of cellular protein were analyzed by SDS-PAGE and immunoblotting with anti-HO-1 antibodies. Immunoblotting with anti-actin was used as a loading control.
For immunoblotting of HO-1, untreated and flavonoid-treated HT22 cells from the same density cultures as used for the cell death assays were washed twice in cold phosphate-buffered saline (PBS) then scraped into lysis buffer containing 50 mM HEPES, pH 7.4, 150 mM NaCl, 50 mM NaF, 1.5 mM MgC2, 1 mM EGTA, 10% glycerol, 1% Triton X-100, 10 mM sodium pyrophosphate, 1 mM Na3VO4, 1 mM phenylmethylsulfonyl fluoride (PMSF), 15 μg/ml aprotinin, 1 μg/ml pepstatin, and 5 μg/ml leupeptin. Lysates were incubated at 4° C. for 30 minutes, and then cleared by centrifugation at 14,000 rpm for 10 minutes. For immunoblotting of Nr12, nuclear extracts were prepared as described (Schreiber et al., Nuc. Acids Res., 17:6419, 1989) from untreated and flavonoid-treated cells. […] Protein concentrations were determined using the BCA protein assay (Pierce). Equal amounts of protein were solubilized in 2.5×SDS sample buffer, separated on 10% SDS polyacrylamide gels and transferred to nitrocellulose. The primary antibodies used were: anti-Nrf2 (#SC13032; 1/1000) from Santa Cruz Biotechnology (Santa Cruz, Calif.) and anti-HO-1 (#SPA-896; 1/5000) from Stressgen (Victoria, BC Canada).

[9] = test system: GSH; test: Total cellular GSH levels in HT22 cells; format: cell-based, mouse; settings: 8 hours
Procedure: The effects of fisetin derivatives on cellular GSH levels was then determined. HT22 cells were untreated (Ct) or treated with 10 μM fisetin, 25 μM 3,3′-DHF, 25 μM 3,4′-DHF, 2.5 μM 3′,4′-DHF, 2.5 μM 3,3′,4′-THF, 25 μM 3,7,3′-THF, 25 μM 3,7,4′-THF or 10 μM 7,3′,4′-THF alone or in the presence of 5 mM glutamate. After 8 hours cellular levels of total GSH were determined as described in Example 4. The GSH level of the control sample (31.5±10 nmoles/mg protein) was taken as 100%.
Total intracellular GSH/GSSG was determined using whole cell lysates from untreated, glutamate treated, flavonoid treated and glutamate plus flavonoid treated cells as described (Maher and Hanneken, Invest. Opthalmol. Vis. Sci., 46:749-57, 2005, herein incorporated by reference as to the method) and normalized to total cellular protein.

Row | SMILES | TEAC [1] | EC50 [2] [µM] | Emax [2] [%] | EC50 ([3]; HT22 cells) [µM] | Emax ([3]; HT22 cells) [%] | EC50 [4] [µM] | differentiation of the cells induced at best [4] [%] | other results
1 | O=c1c(O)c(-c2cccc(O)c2)oc2cc(O)ccc12 [3,7,3′-THF, 3,3′,7-trihydroxyflavone] | 1.55 ± 0.34 | 15 | 40 to 50 | 17 | > 90 | – | – | –
2 | O=c1c(O)c(-c2ccc(O)c(O)c2)oc2cc(O)cc(O)c12 [quercetin, 3,5,7,3′,4′-pentahydroxyflavone] | – | – | – | – | – | 10 | 50 | –
3 | N#CC(=C(/N)Sc1ccccc1N)/C(C#N)=C(\N)Sc1ccccc1N [U0126, reference compound] | – | – | – | – | – | – | – | CREB phosphoprotein signal normalized to total protein [5]: 0.71±0.31; p44 phosphoprotein signal normalized to total protein [6]: 0.13±0.06; p42 phosphoprotein signal normalized to total protein [7]: 0.30±0.05
4 | O=c1cc(-c2ccc(O)c(O)c2)oc2cc(O)cc(O)c12 [Iuteolin, 5,7,3′,4′-tetrahydroxyflavone] | – | – | – | – | – | 10 | 50 | –
5 | O=c1c(O)c(-c2cc(O)c(O)c(O)c2)oc2cc(O)cc(O)c12 [myricetin] | – | – | – | – | – | – | – | differentiation promoting activity ([4]; earlier flavonoid comparison): completely ineffective
6 | O=c1c(O)c(-c2ccc(O)cc2)oc2cc(O)ccc12 [3,7,4′-THF, 3,4′,7-trihydroxyflavone] | 1.01 ± 0.10 | 10 | 70 to 80 | 12.5 | > 90 | – | – | increasing the levels of Nrf2 and inducing HO-1 synthesis [8]: fairly effective; effect of inhibition of ERK activation (PD98059) on Nrf2 and HO-1 induction ([8]; PD98059 pretreatment): reduced
7 | O=c1c(O)c(-c2ccc(O)cc2)oc2ccccc12 [3,4′-DHF, 3,4′-dihydroxyflavone] | 0.62 ± 0.06 | 20 | 50 to 60 | 10 | > 70 | – | – | increasing the levels of Nrf2 and inducing HO-1 synthesis [8]: fairly effective; ability to induce differentiation ([2]; PC12 cells): slightly less efficacious and potent than fisetin; effect of higher levels of BSO on protection [3]: reduced protection
8 | COc1cc(-c2oc3cc(O)cc(O)c3c(=O)c2O)ccc1O [isorhamnetin, 3′-methoxy-3,5,7,4′-tetrahydroxyflavone] | – | – | – | – | – | 10 | 50 | –
9 | O=c1c(O)c(-c2cccc(O)c2)oc2ccccc12 [3,3′-DHF, 3,3′-dihydroxyflavone] | 1.01 ± 0.01 | 10 | 40 to 50 | 12 | > 80 | – | – | –
10 | O=c1cc(-c2ccc(O)c(O)c2)oc2cc(O)ccc12 [7,3′,4′-THF, 3′,4′,7-trihydroxyflavone] | 0.89 ± 0.04 | 10 | 50 to 60 | 5 | > 80 | – | – | GSH levels in the presence of oxidative stress ([9]; 5 mM glutamate): could not maintain GSH levels; basal levels of GSH ([9]; flavonoid alone): raised the basal levels of GSH; effect of higher levels of BSO on protection [3]: reduced protection; protection from oxidative stress-induced death ([3]; HT22 cells, glutamate): equal to or more effective than fisetin
